Assay results reported in US7538085B2, “Peptide deformylase inhibitors as novel antibiotics” (The Ohio State University Research Foundation, priority 2003, dated 2009).
Values after ≈ are worked out from the molar mass of the structure shown. Values joined by “and” are separate entries in the source; they are usually repeats but may differ in a detail not shown here. Identical values can stand only once. Like-named read-outs stand apart in the source and are kept apart here.

Key:
[1] = molecular target: T1, Co(II)-substituted E. coli PDF (Escherichia coli, UniProt P0A6K3); experiment: PDF assay coupled to formate dehydrogenase; assay type: biochemical
T1 construct: made in house
T1 sequence (P0A6K3 whole entry): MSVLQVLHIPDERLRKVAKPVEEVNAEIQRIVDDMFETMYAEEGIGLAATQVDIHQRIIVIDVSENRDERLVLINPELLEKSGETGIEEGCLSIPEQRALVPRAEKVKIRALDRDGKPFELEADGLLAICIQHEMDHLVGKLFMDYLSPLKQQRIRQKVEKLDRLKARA

MMP-9 = MMP-9 (Homo sapiens, UniProt P14780); experiment: Inhibition of human matrix metalloproteases; assay type: biochemical; details: read-out: percentage of MMP-9 activity remaining; for remaining activity at 1 µM: inhibitor 1.0 μM; for remaining activity at 10 µM: inhibitor 10 μM
Sequence of MMP-9 (P14780 94-707): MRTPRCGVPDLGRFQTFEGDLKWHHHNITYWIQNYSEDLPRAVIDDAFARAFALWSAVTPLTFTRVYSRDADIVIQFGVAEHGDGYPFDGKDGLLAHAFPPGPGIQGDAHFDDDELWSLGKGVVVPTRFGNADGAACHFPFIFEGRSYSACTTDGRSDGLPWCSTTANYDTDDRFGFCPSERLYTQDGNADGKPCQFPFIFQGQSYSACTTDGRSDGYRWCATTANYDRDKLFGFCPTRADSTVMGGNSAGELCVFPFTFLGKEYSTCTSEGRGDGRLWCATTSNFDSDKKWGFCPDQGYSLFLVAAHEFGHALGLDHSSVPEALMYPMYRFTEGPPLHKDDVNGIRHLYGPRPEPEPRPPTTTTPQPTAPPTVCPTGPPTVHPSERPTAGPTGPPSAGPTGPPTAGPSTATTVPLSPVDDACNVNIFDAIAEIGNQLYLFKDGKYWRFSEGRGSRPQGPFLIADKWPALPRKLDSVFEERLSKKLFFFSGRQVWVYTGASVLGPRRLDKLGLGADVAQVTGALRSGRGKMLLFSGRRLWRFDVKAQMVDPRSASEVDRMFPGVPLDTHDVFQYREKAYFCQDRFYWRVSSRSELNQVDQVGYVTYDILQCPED
Description: (§1) Inhibition of Metalloproteases (MMP) Several of the inhibitors were tested for inhibition of human matrix metalloproteases, which are often used as indicators of inhibitor selectivity (no inhibition of MMP is desired). Each inhibitor was tested at two different concentrations (1.0 and 10 μM). The values reported are the percentage of MMP activity remaining in the presence of added inhibitor.

MMP2 = molecular target: T2, MMP2 (Homo sapiens, UniProt P08253); experiment: Inhibition of human matrix metalloproteases; assay type: biochemical; details: read-out: percentage of MMP2 activity remaining; for remaining activity at 1 µM: inhibitor 1.0 μM; for remaining activity at 10 µM: inhibitor 10 μM
T2 sequence (P08253 110-660): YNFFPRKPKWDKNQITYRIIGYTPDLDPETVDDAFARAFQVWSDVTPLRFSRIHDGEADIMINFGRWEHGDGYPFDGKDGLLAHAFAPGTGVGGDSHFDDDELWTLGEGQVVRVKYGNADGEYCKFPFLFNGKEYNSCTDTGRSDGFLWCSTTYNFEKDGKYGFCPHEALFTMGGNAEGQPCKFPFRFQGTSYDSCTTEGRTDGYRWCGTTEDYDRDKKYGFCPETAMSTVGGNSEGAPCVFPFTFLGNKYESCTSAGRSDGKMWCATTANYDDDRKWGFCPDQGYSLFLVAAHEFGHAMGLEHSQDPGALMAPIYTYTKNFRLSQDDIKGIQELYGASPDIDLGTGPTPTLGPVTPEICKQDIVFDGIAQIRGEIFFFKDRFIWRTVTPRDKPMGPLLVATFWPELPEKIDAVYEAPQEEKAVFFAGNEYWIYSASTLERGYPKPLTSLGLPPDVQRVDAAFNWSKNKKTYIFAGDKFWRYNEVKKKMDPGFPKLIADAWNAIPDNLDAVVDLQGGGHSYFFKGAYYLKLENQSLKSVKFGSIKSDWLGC
Description: as §1

MMP-1 = molecular target: T3, MMP-1 (Homo sapiens, UniProt P03956); experiment: Inhibition of human matrix metalloproteases; assay type: biochemical; details: read-out: percentage of MMP-1 activity remaining; for remaining activity at 1 µM: inhibitor 1.0 μM; for remaining activity at 10 µM: inhibitor 10 μM
T3 sequence (P03956 100-469): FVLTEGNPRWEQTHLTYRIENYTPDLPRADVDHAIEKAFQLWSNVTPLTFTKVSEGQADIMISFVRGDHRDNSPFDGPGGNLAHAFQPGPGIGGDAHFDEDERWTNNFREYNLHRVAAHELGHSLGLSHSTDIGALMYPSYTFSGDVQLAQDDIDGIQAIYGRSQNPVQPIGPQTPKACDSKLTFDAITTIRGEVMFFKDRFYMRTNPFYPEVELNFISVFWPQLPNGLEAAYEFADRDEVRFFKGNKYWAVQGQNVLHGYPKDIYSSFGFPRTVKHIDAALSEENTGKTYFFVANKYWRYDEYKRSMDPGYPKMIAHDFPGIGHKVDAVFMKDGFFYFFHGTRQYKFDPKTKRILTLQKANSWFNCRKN
Description: as §1

MMP-3 = MMP-3 (Homo sapiens, UniProt P08254); experiment: Inhibition of human matrix metalloproteases; assay type: biochemical; details: read-out: percentage of MMP-3 activity remaining; for remaining activity at 1 µM: inhibitor 1.0 μM; for remaining activity at 10 µM: inhibitor 10 μM
Sequence of MMP-3 (P08254 100-477): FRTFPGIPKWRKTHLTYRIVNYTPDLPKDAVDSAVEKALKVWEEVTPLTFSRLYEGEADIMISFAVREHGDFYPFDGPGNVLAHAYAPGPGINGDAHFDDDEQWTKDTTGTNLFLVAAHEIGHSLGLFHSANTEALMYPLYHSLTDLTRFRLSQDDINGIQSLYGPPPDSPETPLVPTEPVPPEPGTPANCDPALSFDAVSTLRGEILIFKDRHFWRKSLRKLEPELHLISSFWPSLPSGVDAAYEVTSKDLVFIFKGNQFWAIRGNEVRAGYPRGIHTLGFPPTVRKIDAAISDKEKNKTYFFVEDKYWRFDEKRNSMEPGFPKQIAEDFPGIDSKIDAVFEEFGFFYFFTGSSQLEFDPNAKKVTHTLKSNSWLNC
Description: as §1

E. coli PDF = molecular target: T4, E. coli PDF (Escherichia coli, UniProt P0A6K3); experiment: Aminopeptidase assay of PDF inhibition; assay type: biochemical
T4 construct: made in house
T4 sequence (P0A6K3 whole entry): as the sequence (P0A6K3 whole entry) above
Description: Aminopeptidase Assay of Compound 2 The inhibition constant was also determined independently using and aminopeptidase assay.^37 Assay reactions (total volume of 500 μL) containing 50 mM Hepes (pH 7.0), 150 mM NaCl, 8.0 nM E. coli PDF, and 0-50 nM inhibitor 2 were incubated on ice for 2 h. Prior to reaction initiation, the mixture was brought to room temperature for 10 min. The PDF reaction was then initiated by the addition of substrate formyl-Met-Leu-p-nitronilide (final concentration 110 μM) and allowed to proceed for 3 min at room temperature before being quenched by heating at 95° C. for 10 min (the inactivation process is usually complete within the first 30 s). After cooling to room temperature, 1.0 unit of Aeromonas aminopeptidase (AAP) was added to the solution and the mixture was incubated for 15 min at room temperature. The absorbance at 405 nm was measured on a UV-Vis spectrophotometer. […] For all end-point assay reactions, the substrate to product conversion was kept at <20%.

B. subtilis = experiment: Antibacterial activity (cell growth, MIC); assay type: cell-based; details: Bacillus subtilis
Description: (§2) FIG. 5 Inhibition of B. subtilis (A) and E. coli (B) cell growth by inhibitor 2. An overnight culture was diluted 1000-fold into 2 mL of fresh LB medium containing the specified concentrations of inhibitor 2 and incubated at 37° C. Cell densities were measured at the specified times on a UV-vis spectrophotometer.
(§3) The in vitro antibacterial activity of the cyclic inhibitor was tested against E. coli and Bacillus subtilis, the representative Gram-negative and Gram-positive bacteria, respectively.
(§4) Antimicrobial Susceptibility Testing. For Escherichia coli and Bacillus subtilis, cell growth was monitored on the Lambda-20 UV/Vis spectrophotometer at 600 nm. A single bacterial colony from a plate culture was grown overnight in LB media and was diluted 1000-fold into 2 mL of fresh growth medium containing 0-64 μg/mL of test agent in a 5-mL glass test tube shaken at a speed of 250 rpm. Cell growth (at 37° C.) was monitored for 0-600 min.
(§5) Antibacterial Activity of PDF Inhibitors Inhibitors 2-7E were tested against two or more bacterial strains for antibacterial activities.

E. coli = experiment: Antibacterial activity (cell growth, MIC); assay type: cell-based; details: Escherichia coli
Description: as §2, §3, §4, §5

[2] = test system: S. pneumoniae (ATCC 6301); experiment: Antibacterial activity (MIC); assay type: cell-based; details: Streptococcus pneumoniae, ATCC6301
Description: as §5

[3] = test system: S. pneumoniae (ATCC 49619); experiment: Antibacterial activity (MIC); assay type: cell-based; details: Streptococcus pneumoniae, ATCC49619
Description: as §5

[4] = test system: M. catarrhalis (ATCC 37054); experiment: Antibacterial activity (MIC); assay type: cell-based; details: Moraxella catarrhalis, ATCC37054
Description: as §5

E. faecalis (ATCC 29212) = experiment: Antibacterial activity (MIC); assay type: cell-based; details: Enterococcus faecalis, ATCC29212
Description: as §5

[5] = test system: S. pneumoniae (ATCC 6303); experiment: Antibacterial activity (MIC); assay type: cell-based; details: Streptococcus pneumoniae, ATCC6303
Description: as §5

[6] = test system: H. influenzae (ATCC 31517); experiment: Antibacterial activity (MIC); assay type: cell-based; details: Haemophilus influenzae, ATCC31517
Description: as §5

S. aureus (ATCC 29213) = experiment: Antibacterial activity (MIC); assay type: cell-based; details: Staphylococcus aureus, ATCC29213
Description: as §5

[7] = formate dehydrogenase-coupled assay, 4 nM E. coli PDF, pH 7.0, read-out: K1 (apparent inhibition constant)

SMILES | Ki [1, 7] [nM] | remaining activity at 1 µM (MMP-9) [%] | remaining activity at 10 µM (MMP-9) [%] | remaining activity at 1 µM (MMP2) [%] | remaining activity at 10 µM (MMP2) [%] | remaining activity at 1 µM (MMP-1) [%] | remaining activity at 10 µM (MMP-1) [%] | remaining activity at 1 µM (MMP-3) [%] | remaining activity at 10 µM (MMP-3) [%] | MIC (B. subtilis; read-out: MIC) [µg/mL] | MIC (E. coli) | Ki [1] [nM] | also measured
CCCC[C@H](CN(O)C=O)C(=O)N[C@H](C(=O)N(C)C)C(C)(C)C [BB-3497, reference compound] | ~7 |  |  |  |  |  |  |  |  |  |  |  | 
CC(C)(C)[C@@H]1NC(=O)[C@@H](CN(O)C=O)CCCCCCCNC1=O [Compound 1E] | 14 ± 3 | 92 | 89 | 90 | 85 | 100 | 99 | 97 | 80 |  |  |  | 
CC(C)(C)C1NC(=O)C(CN(O)C=O)CCCCCCCCCNC1=O (centres unmarked) [Compound 2, N-(3-tert-Butyl-2,5-dioxo-1,4-diaza-cyclopentadec-6-ylmethyl)-N-hydroxy-formamide] |  | 95 | 91 | 96 | 92 | 93 | 86 | 97 | 91 | 0.7 to 1.4 | ~32 µM and ~12 µg/mL | 0.67 ± 0.2 | Ki (E. coli PDF): 0.33 ± 0.15 nM; MIC (B. subtilis; read-out: minimal inhibitory concentration (MIC)): 2 to 4 µM; MIC [2]: 4 µg/mL (≈ 10.8 µM); MIC [3]: 4 µg/mL (≈ 10.8 µM); MIC [4]: 0.62 µg/mL (≈ 1.68 µM); MIC (E. faecalis (ATCC 29212)): > 32 µg/mL; MIC [5]: 2 µg/mL (≈ 5.41 µM); MIC [6]: 0.5 µg/mL (≈ 1.35 µM); MIC (S. aureus (ATCC 29213)): 16 µg/mL (≈ 43.3 µM); fold more potent against PDF than the acyclic parent/counterpart ([1]; cyclic versus acyclic inhibitor): ~10 fold
CC(C)(C)[C@@H]1NC(=O)[C@@H](CN(O)C=O)CCCCCCCCCCNC1=O [Compound 3E] | 0.4 |  |  |  |  |  |  |  |  |  |  |  | 
CC(C)(C)[C@@H]1NC(=O)[C@@H](CN(O)C=O)CCCCCCCCCCCNC1=O [Compound 4E] |  |  |  |  |  |  |  |  |  | ~0.2 | > 24 µg/mL | 0.22 | 
